Test results as given in PubChem BioAssay (NCI).
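The compound was tested at five concentrations on cells cultured in 96-well plates, with a 48-hour exposure period. The concentration for full growth arrest is given as TGI.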

Legend:
Experiment in all cases: DTP human tumour cell line panel, 48 h
[1] = test system: SF-539 CNS
[2] = test system: SR leukemia
[3] = test system: NCI-H460 lung
[4] = test system: HOP-92 NSCLC
[5] = test system: HCC-2998 colon
[6] = test system: EKVX NSCLC
[7] = test system: HCT-116 colon
[8] = test system: TK-10 renal
[9] = test system: RPMI-8226 leukemia
[10] = test system: MDA-MB-435
[11] = test system: IGROV1 ovarian
[12] = test system: NCI-H23 lung
[13] = test system: HOP-62 NSCLC
[14] = test system: DU-145 prostate
[15] = test system: A549 NSCLC
[16] = test system: MALME-3M melanoma
[17] = test system: KM12 colon
[18] = test system: SN12C renal
[19] = test system: UACC-257 melanoma
[20] = test system: OVCAR-5 ovarian
[21] = test system: HS 578T breast
[22] = test system: SF-268 CNS
[23] = test system: OVCAR-4 ovarian
[24] = test system: NCI-H522 lung
[25] = test system: CAKI-1 renal
[26] = test system: MDA-MB-231 breast
[27] = test system: COLO 205 colon
[28] = test system: SK-MEL-5 melanoma
[29] = test system: SW-620 colon
[30] = test system: SF-295 CNS
[31] = test system: HCT-15 colon
[32] = test system: BT-549 breast
[33] = test system: LOX IMVI melanoma
[34] = test system: SK-MEL-28 melanoma
[35] = test system: MOLT-4 leukemia
[36] = test system: CCRF-CEM leukemia
[37] = test system: SNB-75 CNS
[38] = test system: RXF 393 renal
[39] = test system: PC-3 prostate
[40] = test system: U251 CNS
[41] = test system: OVCAR-3 ovarian
[42] = test system: 786-0 renal
[43] = test system: OVCAR-8 ovarian
[44] = test system: UO-31 renal
[45] = test system: MCF7 breast
[46] = test system: NCI/ADR-RES ovarian
[47] = test system: UACC-62 melanoma
[48] = test system: A498 renal
[49] = test system: ACHN renal
[50] = test system: SK-OV-3 ovarian
[51] = test system: MDA-N
[52] = test system: NCI-H226 lung
[53] = test system: K-562 leukemia
[54] = test system: SNB-19 CNS
[55] = test system: M14 melanoma
[56] = test system: HT29 colon
[57] = test system: SK-MEL-2 melanoma

Measured: TGI

O=C1C(=C2SC(c3ccccc3)(c3ccccc3)c3ccccc32)C(=O)c2ccccc21
not listed: [57]
> 100 µM: all other assays above

FC(F)(F)c1ccc(C2=N/S(c3ccccc3)=N\C(c3ccc(C(F)(F)F)cc3)=N/S(c3ccccc3)=N\2)cc1 (stereo not given)
not listed: [13] | [48] | [52]
> 100 µM: all other assays above
